According to ChEMBL document CHEMBL1147487, “Synthesis and evaluation of substrate-mimicking cytosolic phospholipase A2 inhibitors--reducing the lipophilicity of the arachidonyl chain isostere” (Bioorg Med Chem Lett, 2004):

Experiments:
HL-60 = experiment: Inhibition of [3H]Arachidonic acid production by stimulated HL60 (human leukemia) cells.; assay type: functional, cell-based
[1] = In vitro inhibition of human recombinant cytosolic phospholipase A2 (c-PLA2).

| Structure (SMILES) | IC50 (HL-60) [µM] | IC50 [1] [µM] |
| --- | --- | --- |
| O=C(COc1ccc(C(=O)O)cc1)COc1ccc2c(c1)C(=O)N(Cc1ccc(Cl)c(Cl)c1)C2=O | 1 | 0.56 |
| O=C(COc1ccc(SCCCCC(=O)N2CCCCC2)cc1)COc1ccc(C(=O)O)cc1 | – | 12 |
| O=C(COc1ccc(C(=O)O)cc1)COc1ccc(C(=O)OCCCCCc2ccccc2)cc1 | 1.3 | 0.05 |
| O=C(COc1ccc(C(=O)O)cc1)COc1ccc(-c2noc(Cc3ccc(Cl)c(Cl)c3)n2)cc1 | 2.7 | 0.09 |
| O=C(COc1ccc(SCCCCCc2ccccc2)cc1)COc1ccc(C(=O)O)cc1 | 5.8 | 0.08 |
| O=C(COc1ccc(C(=O)O)cc1)COc1ccc2c(c1)C(=O)N(CCCCc1ccccc1)C2=O | 0.76 | 0.18 |
| O=C(COc1ccc(C(=O)O)cc1)COc1ccc([S+]([O-])CCCCCc2ccccc2)cc1 (configuration not stated) | 18 | 1.8 |
| O=C(COc1ccc(OCCCCCC2CCCO2)cc1)COc1ccc(C(=O)O)cc1 (configuration not stated) | – | 5.2 |
| Cn1ccnc1SCCCCOc1ccc(OCC(=O)COc2ccc(C(=O)O)cc2)cc1 | – | 63 |
| O=C(COc1ccc(C(=O)O)cc1)COc1ccc(-c2noc(CCCCc3ccccc3)n2)cc1 | 0.76 | 0.27 |
| O=C(COc1ccc(C(=O)O)cc1)COc1ccc(C(=O)NCCCCc2ccccc2)cc1 | – | 20 |

Continued by falling IC50 [1], values first:

| IC50 (HL-60) [µM] | IC50 [1] [µM] | Structure (SMILES) |
| --- | --- | --- |
| – | 34 | CN(CCc1ccccc1)C(=O)CSc1ccc(OCC(=O)COc2ccc(C(=O)O)cc2)cc1 |
| – | 1.7 | CCOCCCCCCCOc1ccc(OCC(=O)COc2ccc(C(=O)O)cc2)cc1 |
| 5.2 | 1 | O=C(COc1ccc(C(=O)O)cc1)COc1ccc(S(=O)(=O)CCCCCc2ccccc2)cc1 |
| 1.1 | 0.76 | O=C(COc1ccc(SCCCCSc2nccs2)cc1)COc1ccc(C(=O)O)cc1 |
| 4.8 | 0.59 | O=C(COc1ccc(OCCCCCc2ccco2)cc1)COc1ccc(C(=O)O)cc1 |
| 2.6 | 0.46 | O=C(COc1ccc(OCCCCCc2ccccc2)cc1)COc1ccc(C(=O)O)cc1 |
| 2 | 0.25 | O=C(COc1ccc(OCc2ccc(Cl)c(Cl)c2)cc1)COc1ccc(C(=O)O)cc1 |
| 1.1 | 0.14 | O=C(COc1ccc(OCCCCSc2nc3ccccc3o2)cc1)COc1ccc(C(=O)O)cc1 |
| 1 | 0.08 | O=C(COc1ccc(SCCCCCc2ccco2)cc1)COc1ccc(C(=O)O)cc1 |
| 4.7 | 0.04 | O=C(COc1ccc(C(=O)O)cc1)COc1ccc(-c2noc(-c3ccc(Cl)c(Cl)c3)n2)cc1 |
| – | 0.03 | CCCCCCCCCCOc1ccc(OCC(=O)COc2ccc(C(=O)O)cc2)cc1 |
